Source: PubChem BioAssay AID248 (DTP/NCI, 2004)
“And” between values parts separate entries of the source, which are not always exact repeats. Equal values may be shown once. Toxic doses and inconclusive results are not listed. Rule as the data show it: active = T/C of 150% or more; inactive = T/C below 125%.

System: L1210 leukemia ip in BDF1 mice, survival T/C
Test: NCI In Vivo Anticancer Drug Screen. Data for tumor model L1210 Leukemia (intraperitoneal) in B6D2F1 (BDF1) mice
Conditions: endpoint: mean survival time, higher = longer survival
Summary of the method: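 Read-out is survival time, reported as the treated-group measurement over the vehicle-control measurement.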

[1] = dose: 75.0 mg/kg/injection, schedule: Q01DX001 (ip), vehicle: saline
[2] = dose: 100.0 mg/kg/injection, schedule: Q01DX009 (ip), vehicle: saline with Tween-80
[3] = dose: 100.0 mg/kg/injection, schedule: Q04DX003 (ip), vehicle: saline with Tween-80
[4] = dose: 200.0 mg/kg/injection, schedule: Q01DX009 (ip), vehicle: saline with Tween-80
[5] = dose: 200.0 mg/kg/injection, schedule: Q04DX003 (ip), vehicle: saline with Tween-80
[6] = dose: 400.0 mg/kg/injection, schedule: Q01DX009 (ip), vehicle: saline with Tween-80
[7] = dose: 400.0 mg/kg/injection, schedule: Q04DX003 (ip), vehicle: saline with Tween-80
[8] = dose: 25.0 mg/kg/injection, schedule: Q01DX009 (ip), vehicle: saline with Tween-80
[9] = dose: 50.0 mg/kg/injection, schedule: Q01DX009 (ip), vehicle: saline with Tween-80
[10] = dose: 100.0 mg/kg/injection, schedule: Q01DX009 (ip), vehicle: Klucel (hydroxypropylcellulose) (HPC)
[11] = dose: 100.0 mg/kg/injection, schedule: Q04DX003 (ip), vehicle: Klucel (hydroxypropylcellulose) (HPC)
[12] = dose: 200.0 mg/kg/injection, schedule: Q01DX009 (ip), vehicle: Klucel (hydroxypropylcellulose) (HPC)
[13] = dose: 200.0 mg/kg/injection, schedule: Q04DX003 (ip), vehicle: Klucel (hydroxypropylcellulose) (HPC)
[14] = dose: 400.0 mg/kg/injection, schedule: Q04DX003 (ip), vehicle: Klucel (hydroxypropylcellulose) (HPC)

Measured: T/C

CCCCCCCCCCCCCCCCOS(=O)(=O)O
inactive: dose: 37.5 mg/kg/injection, schedule: Q04DX003 (ip), vehicle: saline 103 % of control | [1] 106 % of control | dose: 75.0 mg/kg/injection, schedule: Q04DX003 (ip), vehicle: saline 97 % of control | dose: 150.0 mg/kg/injection, schedule: Q01DX001 (ip), vehicle: saline 90 % of control | dose: 150.0 mg/kg/injection, schedule: Q04DX003 (ip), vehicle: saline 96 % of control

CCOC(=O)CCCN(c1ccccc1)S(=O)(=O)c1ccc(C)cc1
inactive: dose: 100.0 mg/kg/injection, schedule: Q01DX001 (ip), vehicle: carboxymethylcellulose (CMC) 93 % of control | dose: 200.0 mg/kg/injection, schedule: Q01DX001 (ip), vehicle: carboxymethylcellulose (CMC) 96 % of control | dose: 400.0 mg/kg/injection, schedule: Q01DX001 (ip), vehicle: carboxymethylcellulose (CMC) 107 % of control

NNc1nc(Cl)cc2c1ncn2C1OC(CO)C(O)C1O (stereo not given)
inactive: dose: 100.0 mg/kg/injection, schedule: Q01DX005 (ip), vehicle: saline 98 % of control | dose: 200.0 mg/kg/injection, schedule: Q01DX005 (ip), vehicle: saline 113 % of control

O=C(O)CCCCc1ccccc1
inactive: [2] 96 % of control | [3] 100 % of control | [4] 100 % of control | [5] 91 % of control | [6] 92 % of control | [7] 94 % of control

CC(CC(c1ccccc1)c1ccccc1)[N+](C)(C)C (stereo not given)
inactive: dose: 5.0 mg/kg/injection, schedule: Q01DX001 (ip), vehicle: carboxymethylcellulose (CMC) 104 % of control | dose: 10.0 mg/kg/injection, schedule: Q01DX001 (ip), vehicle: carboxymethylcellulose (CMC) 101 % of control | dose: 20.0 mg/kg/injection, schedule: Q01DX001 (ip), vehicle: carboxymethylcellulose (CMC) 95 % of control | dose: 40.0 mg/kg/injection, schedule: Q01DX001 (ip), vehicle: carboxymethylcellulose (CMC) 93 % of control | dose: 80.0 mg/kg/injection, schedule: Q01DX001 (ip), vehicle: carboxymethylcellulose (CMC) 98 % of control

CCN(CC)CCCCN(C)c1ccccc1
inactive: dose: 12.5 mg/kg/injection, schedule: Q01DX009 (ip), vehicle: saline with Tween-80 89 % of control | dose: 12.5 mg/kg/injection, schedule: Q04DX003 (ip), vehicle: acetone 93 % of control | [8] 97 % of control | dose: 25.0 mg/kg/injection, schedule: Q04DX003 (ip), vehicle: acetone 89 % of control | [9] 97 % of control | dose: 50.0 mg/kg/injection, schedule: Q04DX003 (ip), vehicle: acetone 98 % of control

CCCC[As](=O)(O)CCCc1ccccc1
inactive: dose: 0.78 mg/kg/injection, schedule: Q01DX009 (ip), vehicle: saline 97 % of control | dose: 1.56 mg/kg/injection, schedule: Q01DX009 (ip), vehicle: saline 100 % of control | dose: 3.13 mg/kg/injection, schedule: Q01DX009 (ip), vehicle: saline 103 % of control

[Br][Pb]([Br])([c]1ccccc1)[c]1ccccc1
inactive: [10] 117 % of control | [11] 91 % of control | [12] 98 % of control | [13] 100 % of control | [14] 94 % of control

COC1(c2cccs2)OC1(C)C (stereo not given)
inactive: [2] 110 % of control | [4] 94 % of control | [6] 100 % of control

O=C(NC1CCCCC1)c1ccc(Cl)cc1
inactive: dose: 100.0 mg/kg/injection, schedule: Q01DX001 (ip), vehicle: Klucel (hydroxypropylcellulose) (HPC) 105 % of control | [11] 94 % of control | dose: 200.0 mg/kg/injection, schedule: Q01DX001 (ip), vehicle: Klucel (hydroxypropylcellulose) (HPC) 89 % of control | [13] 105 % of control | dose: 400.0 mg/kg/injection, schedule: Q01DX001 (ip), vehicle: Klucel (hydroxypropylcellulose) (HPC) 105 % of control | [14] 102 % of control

CCCCCn1c(C)cc(/C=C\c2ccc3cc(C)ccc3[n+]2C)c1C
inactive: dose: 0.5 mg/kg/injection, schedule: Q01DX001 (ip), vehicle: carboxymethylcellulose (CMC) 94 % of control | dose: 0.5 mg/kg/injection, schedule: Q01DX009 (ip), vehicle: saline sonified 116 % of control | dose: 0.5 mg/kg/injection, schedule: Q04DX003 (ip), vehicle: saline sonified 98 % of control | dose: 0.66 mg/kg/injection, schedule: Q01DX009 (ip), vehicle: saline 101 % of control | dose: 1.0 mg/kg/injection, schedule: Q01DX001 (ip), vehicle: carboxymethylcellulose (CMC) 97 % of control | dose: 1.0 mg/kg/injection, schedule: Q01DX009 (ip), vehicle: saline 100 % of control | dose: 1.0 mg/kg/injection, schedule: Q04DX003 (ip), vehicle: saline sonified 97 % of control | dose: 1.5 mg/kg/injection, schedule: Q01DX009 (ip), vehicle: saline 92 % of control | dose: 2.0 mg/kg/injection, schedule: Q01DX001 (ip), vehicle: carboxymethylcellulose (CMC) 97 % of control | dose: 2.0 mg/kg/injection, schedule: Q04DX003 (ip), vehicle: saline sonified 106 % of control

CCCCn1nnc2c(NN)nc(N)nc21
inactive: [8] 102 % of control | dose: 25.0 mg/kg/injection, schedule: Q04DX003 (ip), vehicle: saline with Tween-80 100 % of control | [9] 101 % of control | dose: 50.0 mg/kg/injection, schedule: Q04DX003 (ip), vehicle: saline with Tween-80 94 % of control | [3] 100 % of control

CCOc1ccc(Br)cc1/C=C1\N=C(c2ccccc2)OC1=O
inactive: [10] 93 % of control and 95 % of control | [11] 97 % of control and 98 % of control | [12] 93 % of control and 98 % of control | [13] 98 % of control and 89 % of control | dose: 400.0 mg/kg/injection, schedule: Q01DX009 (ip), vehicle: Klucel (hydroxypropylcellulose) (HPC) 96 % of control and 86 % of control | [14] 93 % of control and 98 % of control

N#CC(N)c1ccccc1 (stereo not given)
inactive: [1] 103 % of control

Brc1ccccc1C=C1c2ccccc2-c2ccccc21
inactive: [3] 102 % of control | [5] 101 % of control | [7] 96 % of control

O=S(=O)(O)N(O)S(=O)(=O)O
inactive: dose: 100.0 mg/kg/injection, schedule: Q04DX002 (ip), vehicle: saline 97 % of control | dose: 100.0 mg/kg/injection, schedule: Q04DX003 (ip), vehicle: saline 97 % of control | dose: 200.0 mg/kg/injection, schedule: Q04DX002 (ip), vehicle: saline 97 % of control | dose: 200.0 mg/kg/injection, schedule: Q04DX003 (ip), vehicle: saline 90 % of control | dose: 400.0 mg/kg/injection, schedule: Q04DX002 (ip), vehicle: saline 102 % of control

N#Cc1cc(C(Cl)(Cl)Cl)ccc1C(Cl)(Cl)Cl
inactive: [11] 97 % of control | [13] 95 % of control | [14] 90 % of control

COc1cc(Br)c(NC(C)=O)cc1OC
inactive: dose: 100.0 mg/kg/injection, schedule: Q01DX001 (ip), vehicle: saline 98 % of control | dose: 200.0 mg/kg/injection, schedule: Q01DX001 (ip), vehicle: saline 108 % of control | dose: 400.0 mg/kg/injection, schedule: Q01DX001 (ip), vehicle: saline 96 % of control
